Where only a bound is given, the exact number is not on record here.

For assay [1], the system named is Human pulmonary carcinoma cells (LC-6). Put plainly: Antitumor activity against human pulmonary carcinoma cells (LC-6) transplanted into nude mice. Type of assay: in vivo. Conditions: LC-6 in nude mice, oral 20 mg/kg once a day for 9 days; for inhibition in vivo at 20 mg/kg: Mus musculus, 216 h, read-out: TGIR (tumor growth inhibition rate). The method, then: Human pulmonary carcinoma cells (LC-6) (obtained from Central Laboratories for Experimental Animals) were transplanted into nude mice. When the tumor volume became about 100 mm^3, the mice were grouped so that each group consisted of four mice and the average tumor volume was even among the groups. A test compound was orally administered at a dose of 20 mg/kg to the test groups every day once a day for 9 days, while only a vehicle was administered to a control group in the manner as in the test groups. The tumor growth inhibition rate (TGIR) was calculated as follows: The tumor growth inhibition rate (TGIR)=(1−TX/CX)×100 wherein CX represents the volume of tumor at day X for the control group when the tumor volume at the first day of the administration was presumed to be 1; and TX represents the tumor volume for test compound administration groups.

The target of the next assay is T1, human KDR (Homo sapiens, UniProt P35968).
T1 construct: expressed in transfected cells; host or cells: NIH 3T3 cells (mouse fibroblasts) stably expressing human KDR
T1 sequence (P35968 20-1356): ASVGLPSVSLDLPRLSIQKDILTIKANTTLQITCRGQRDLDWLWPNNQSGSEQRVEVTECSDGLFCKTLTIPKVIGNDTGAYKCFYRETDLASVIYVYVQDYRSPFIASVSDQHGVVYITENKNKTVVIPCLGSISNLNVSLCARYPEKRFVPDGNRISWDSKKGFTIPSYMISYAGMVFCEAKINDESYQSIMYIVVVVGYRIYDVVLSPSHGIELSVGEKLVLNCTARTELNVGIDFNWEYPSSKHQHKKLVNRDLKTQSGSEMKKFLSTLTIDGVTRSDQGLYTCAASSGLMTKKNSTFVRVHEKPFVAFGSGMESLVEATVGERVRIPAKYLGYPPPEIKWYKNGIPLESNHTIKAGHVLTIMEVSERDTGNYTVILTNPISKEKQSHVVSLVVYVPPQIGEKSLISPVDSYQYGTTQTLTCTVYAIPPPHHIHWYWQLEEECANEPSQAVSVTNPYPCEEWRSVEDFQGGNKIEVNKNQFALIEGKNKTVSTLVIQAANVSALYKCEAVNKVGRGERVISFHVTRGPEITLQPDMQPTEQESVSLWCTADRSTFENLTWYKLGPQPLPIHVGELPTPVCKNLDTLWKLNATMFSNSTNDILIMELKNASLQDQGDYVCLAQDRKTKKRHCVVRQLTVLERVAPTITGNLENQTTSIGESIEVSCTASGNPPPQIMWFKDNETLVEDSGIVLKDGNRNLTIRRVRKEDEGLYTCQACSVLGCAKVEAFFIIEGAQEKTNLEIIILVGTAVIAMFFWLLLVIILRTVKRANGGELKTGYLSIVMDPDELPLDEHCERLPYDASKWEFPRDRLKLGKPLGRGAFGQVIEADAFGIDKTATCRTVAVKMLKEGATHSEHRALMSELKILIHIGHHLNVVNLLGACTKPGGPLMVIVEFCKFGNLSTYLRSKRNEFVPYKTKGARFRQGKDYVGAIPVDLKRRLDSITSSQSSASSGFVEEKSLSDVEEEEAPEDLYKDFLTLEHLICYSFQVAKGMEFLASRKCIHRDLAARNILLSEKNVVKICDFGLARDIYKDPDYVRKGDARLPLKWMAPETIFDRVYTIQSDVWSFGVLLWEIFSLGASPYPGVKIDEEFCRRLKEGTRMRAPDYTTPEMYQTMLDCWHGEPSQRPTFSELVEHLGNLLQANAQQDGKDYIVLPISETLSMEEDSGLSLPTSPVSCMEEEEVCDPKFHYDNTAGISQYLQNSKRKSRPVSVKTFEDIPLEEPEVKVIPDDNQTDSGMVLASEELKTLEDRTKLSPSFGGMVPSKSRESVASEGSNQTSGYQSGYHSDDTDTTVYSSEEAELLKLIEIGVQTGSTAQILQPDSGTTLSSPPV
Put plainly: Inhibitory activity against KDR phosphorylation by ELISA (VEGF-stimulated NIH 3T3 cells expressing human KDR). The format is cell-based. Conditions: VEGF 100 ng/ml, compound 1 hr, read-out: IC50 (inhibition of KDR phosphorylation). The method, then:
The harvested cells were inoculated into wells of a collagen-type one-coat 96-well flat-bottom plate, each containing the same medium, in an amount of 1.5×10^4 per well, followed by cultivation at 37° C. overnight. The medium was then replaced by a DMEM medium containing 0.1% fetal calf serum. A solution of a test compound in dimethyl sulfoxide was added to each well, and the cultivation was continued at 37° C. for additional one hr. A human recombinant vascular endothelial growth factor (hereinafter abbreviated to “VEGF”) was added to a final concentration of 100 ng/ml, and the stimulation of cells was carried out at 37° C. for 2 min. The medium was removed, the cells were washed with phosphate buffered saline (pH 7.4), and 50 μl of a solubilization buffer (20 mM HEPES (pH 7.4), 150 mM NaCl, 0.2% Triton X-100, 10% glycerol, 5 mM sodium orthovanadylate, 5 mM disodium ethylenediaminetetraacetate, and 2 mM Na4P2O7) was then added thereto. The mixture was shaken at 4° C. for 2 hr to prepare a cell extract.
Separately, phosphate buffered saline (50 μl, pH 7.4) containing 5 μg/ml of an anti-phospho-tyrosine antibody (PY20; purchased from Transduction Laboratories) was added to a microplate for ELISA (Maxisorp; purchased from NUNC), followed by standing at 4° C. overnight to form a solid phase on the wells. After washing of the plate, 300 μl of a blocking solution was added, followed by standing at room temperature for 2 hr to perform blocking. After washing, the whole quantity of the cell extract was transferred to the wells, and the plate was then allowed to stand at 4° C. overnight. After washing, an anti-KDR antibody (purchased from Santa Cruz) was allowed to react at room temperature for one hr, and, after washing, a peroxidase-labeled anti-rabbit Ig antibody (purchased from Amersham) was allowed to react at room temperature for one hr. After washing, a chromophoric substrate for peroxidase (purchased from Sumitomo Bakelite Co., Ltd.) was added thereto to initiate a reaction. After a suitable level of color development, a reaction termination solution was added to stop the reaction, and the absorbance at 450 nm was measured with a microplate reader. The KDR phosphorylation activity for each well was determined by presuming the absorbance with the addition of VEGF and without the addition of the medicament to be 100% KDR phosphorylation activity and the absorbance without the addition of the medicament and VEGF to be 0% KDR phosphorylation activity.

In the case of `COc1cc2nccc(Oc3ccc(NC(=O)Nc4nc(C)c(C)s4)c(F)c3)c2cc1OC` [Ex. 23, N-{4-[(6,7-Dimethoxy-4-quinolyl)oxy]-2-fluorophenyl}-N′-(4,5-dimethyl-1,3-thiazol-2-yl)urea], the inhibition in vivo at 20 mg/kg in assay [1] is 51.7%. For the same compound, the IC50 – broadly, the concentration that inhibits the measured activity by half – at human KDR was below 1 nM. The like results for `COc1cc2ncnc(Oc3ccc(NC(=O)Nc4ncc(C)s4)c(Cl)c3)c2cc1OC` [Ex. 39, N-{2-Chloro-4-[(6,7-dimethoxy-4-quinazolinyl)oxy]phenyl}-N′-(5-methyl-1,3-thiazol-2-yl)urea] were, in that order, 64% and below 1 nM. Regarding `COc1cc2nccc(Oc3ccc(NC(=O)Nc4cc(C)no4)c(Cl)c3)c2cc1OC` [Ex. 5, N-{2-Cloro-4-[(6,7-dimethoxy-4-quinolyl)oxy]phenyl}-N′-(3-methyl-5-isoxazolyl)urea], the “TGIR (tumor growth inhibition rate)” value in assay [1] is on record as 29.5%. Moreover, the IC50 at human KDR was below 1 nM.

For the compound `CCOC(=O)Cc1csc(NC(=O)Nc2ccc(Oc3ccnc4cc(OC)c(OC)cc34)cc2F)n1` [Ex. 29, Ethyl 2-{2-[({4-[(6,7-dimethoxy-4-quinolyl)oxy]-2-fluoroanilino}carbonyl)amino]-1,3-thiazol-4-yl}acetate], the inhibition in vivo at 20 mg/kg in assay [1] was 66.1%. Further, the IC50 at human KDR is 49.4 nM. For `COc1cc2nccc(Oc3ccc(NC(=O)Nc4nnc(C(F)(F)F)s4)cc3F)c2cc1OC` [Ex. 52, N-{4-[(6,7-Dimethoxy-4-quinolyl)oxy]-3-fluorophenyl}-N′-[5-(trifluoromethyl)-1,3,4-thiadiazol-2-yl]urea], in that order: 20.7% and 13 nM.

Turning to `COc1cc2nccc(Oc3cc(C)c(NC(=O)Nc4nnc(C5CC5)s4)cc3C)c2cc1OC` [Ex. 69, N-(5-Cyclopropyl-1,3,4-thiadiazol-2-yl)-N′-{4-[(6,7-dimethoxy-4-quinolyl)oxy]-2,5-dimethylphenyl}-urea], the inhibition in vivo at 20 mg/kg in assay [1] is 23.3%. In addition, on human KDR, the IC50 is 4.1 nM. The like results for `COc1cc2nccc(Oc3ccc(NC(=O)Nc4ccon4)cc3F)c2cc1OC` [Ex. 3, N-{4-[(6,7-Dimethoxy-4-quinolyl)oxy]-3-fluorophenyl}-N′-(3-isoxazolyl)urea] were, in that order, 39.5% and below 1 nM. The like results for `COc1cc2nccc(Oc3ccc(NC(=O)Nc4cc(C)no4)c(F)c3)c2cc1OC` [Ex. 6, N-{4-[(6,7-Dimethoxy-4-quinolyl)oxy]-2-fluorophenyl}-N′-(3-methyl-5-isoxazolyl)urea] were, in that order, 29.3% and below 1 nM. In the case of `COc1cc2ncnc(Oc3ccc(NC(=O)Nc4nc(C)c(C)s4)c(Cl)c3)c2cc1OC` [Ex. 40, N-{2-Chloro-4-[(6,7-dimethoxy-4-quinazolinyl)oxy]phenyl}-N′-(4,5-dimethyl-1,3-thiazol-2-yl)urea], the inhibition in vivo at 20 mg/kg in assay [1] was determined as 34.2%. The IC50 on human KDR is below 1 nM. The like results for `COc1cc2nccc(Oc3ccc(NC(=O)Nc4nc(C)c(C)s4)cc3Cl)c2cc1OC` [Ex. 25, N-{3-Chloro-4-[(6,7-dimethoxy-4-quinolyl)oxy]phenyl}-N′-(4,5-dimethyl-1,3-thiazol-2-yl)urea] were, in that order, 18.8% and 1.9 nM. For `COc1cc2nccc(Oc3ccc(NC(=O)Nc4cc(C)on4)c(F)c3)c2cc1OC` [Ex. 9, N-{4-[(6,7-Dimethoxy-4-quinolyl)oxy]-2-fluorophenyl}-N′-(5-methyl-3-isoxazolyl)urea], in that order: 63.5% and 0.2 nM. Turning to `CCc1nnc(NC(=O)Nc2ccc(Oc3ccnc4cc(OC)c(OC)cc34)c(C)c2C)s1` [Ex. 62, N-{4-[(6,7-Dimethoxy-4-quinolyl)oxy]-2,3-dimethylphenyl}-N′-(5-ethyl-1,3,4-thiadiazol-2-yl)urea], the 50% inhibitory concentration (IC50) at human KDR is 1.5 nM. For the compound `COc1cc2ncnc(Oc3ccc(NC(=O)Nc4cc(C)ns4)c(Cl)c3)c2cc1OC` [Ex. 17, N-{2-Chloro-4-[(6,7-dimethoxy-4-quinazolinyl)oxy]phenyl}-N′-(3-methyl-5-isothiazolyl)-urea], the IC50 on human KDR was 4.9 nM. Still for that read-out and setting: then `COc1cc2ncnc(Oc3ccc(NC(=O)Nc4nccs4)cc3Cl)c2cc1OC` [Ex. 46, N-{3-Chloro-4-[(6,7-dimethoxy-4-quinazolinyl)oxy]phenyl}-N′-(1,3-thiazol-2-yl)urea], with 7.4 nM; and `COc1cc2ncnc(Oc3ccc(NC(=O)Nc4nccs4)cc3)c2cc1OC` [Ex. 42, N-{4-[(6,7-Dimethoxy-4-quinazolinyl)oxy]-phenyl}-N′-(1,3-thiazol-2-yl)urea], with 4.7 nM.

Consider `COc1cc2nccc(Oc3ccc(NC(=O)Nc4ncc(Br)s4)c(F)c3)c2cc1OC` [Ex. 35, N-(5-Bromo-1,3-thiazol-2-yl)-N′-{4-[(6,7-dimethoxy-4-quinolyl)oxy]-2-fluorophenyl}urea], for which the half-inhibitory concentration (IC50) on human KDR was 1.9 nM. Take `COc1cc2nccc(Oc3ccc(NC(=O)Nc4nc(C)cs4)c(Cl)c3)c2cc1OC` [Ex. 22, N-{2-Chloro-4-[(6,7-dimethoxy-4-quinolyl)oxy]phenyl}-N′-(4-methyl-1,3-thiazol-2-yl)urea]: the inhibition in vivo at 20 mg/kg in assay [1] was 43.8%. For the same compound, the IC50 at human KDR was below 1 nM. Take `COc1cc2nccc(Oc3ccc(NC(=O)Nc4ncc(Cl)s4)c(F)c3)c2cc1OC` [Ex. 37, N-(5-Chloro-1,3-thiazol-2-yl)-N′-{4-[(6,7-dimethoxy-4-quinolyl)oxy]-2-fluorophenyl}urea]: on human KDR, the IC50 was determined as 1.9 nM. Consider `COc1cc2ncnc(Oc3ccc(NC(=O)Nc4nc(C)c(C)s4)cc3Cl)c2cc1OC` [Ex. 49, N-{3-Chloro-4-[(6,7-dimethoxy-4-quinazolinyl)oxy]phenyl}-N′-(4,5-dimethyl-1,3-thiazol-2-yl)urea], for which the IC50 on human KDR came to 3.1 nM. Same read-out and setting: then `CCOC(=O)Cc1csc(NC(=O)Nc2ccc(Oc3ccnc4cc(OC)c(OC)cc34)cc2Cl)n1` [Ex. 31, Ethyl 2-{2-[({2-chloro-4-[(6,7-dimethoxy-4-quinolyl)oxy]anilino}carbonyl)amino]-1,3-thiazol-4-yl}acetate], with 33.9 nM. On to `COc1cc2nccc(Oc3ccc(NC(=O)Nc4nnc(C(F)(F)F)s4)c(C)c3C)c2cc1OC` [Ex. 53, N-{4-[(6,7-Dimethoxy-4-quinolyl)oxy]-2,3-dimethylphenyl}-N′-[5-(trifluoromethyl)-1,3,4-thiadiazol-2-yl]urea], for which, in assay [1], the inhibition in vivo at 20 mg/kg is 14.4%. Also, the half-inhibitory concentration (IC50) at human KDR turned out to be 1.2 nM. As to `CCc1nnc(NC(=O)Nc2ccc(Oc3ccnc4cc(OC)c(OC)cc34)c(F)c2)s1` [Ex. 64, N-{4-[(6,7-Dimethoxy-4-quinolyl)oxy]-3-fluorophenyl}-N′-(5-ethyl-1,3,4-thiadiazol-2-yl)urea], the IC50 at human KDR was 1.5 nM. For the compound `COc1cc2nccc(Oc3ccc(NC(=O)Nc4nnc(C(C)(C)C)s4)c(C)c3C)c2cc1OC` [Ex. 75, N-[5-(Tert-butyl)-1,3,4-thiadiazol-2-yl]-N′-{4-[(6,7-dimethoxy-4-quinolyl)oxy]-2,3-dimethylphenyl}-urea], the IC50 at human KDR was found to be 4.5 nM. As for `COc1cc2nccc(Oc3ccc(NC(=O)Nc4ccn[nH]4)c(F)c3)c2cc1OC` [Ex. 20, N-{4-[(6,7-Dimethoxy-4-quinolyl)oxy]-2-fluorophenyl}-N′-(1H-5-pyrazolyl)urea], on human KDR, the half-maximal inhibitory concentration (IC50) was determined as 4.2 nM. Take `COc1cc2nccc(Oc3ccc(NC(=O)Nc4nnc(C(C)(C)C)s4)c(F)c3)c2cc1OC` [Ex. 74, N-[5-(Tert-butyl)-1,3,4-thiadiazol-2-yl]-N′-{4-[(6,7-dimethoxy-4-quinolyl)oxy]-2-fluorophenyl}urea]: the IC50 on human KDR was determined as 3 nM.

Take `CCc1nnc(NC(=O)Nc2ccc(Oc3ccnc4cc(OC)c(OC)cc34)cc2Cl)s1` [Ex. 65, N-{2-Chloro-4-[(6,7-dimethoxy-4-quinolyl)oxy]phenyl}-N′-(5-ethyl-1,3,4-thiadiazol-2-yl)urea]: the 50% inhibitory concentration (IC50) at human KDR was below 1 nM.

The values above are taken from patent US7211587B2, “Quinoline derivatives and quinazoline derivatives having azolyl group” (Kirin Beer Kabushiki Kaisha, priority 2001, dated 2007).
